What was measured:
CXCL16 = assay: RT-qPCR gene expression in cytokine-stimulated keratinocytes; type: cell-based, humains; settings: 24 h
IL-8 [1] = assay: as above; type: cell-based, humains; settings: 24 h
MMP-9 [2] = assay: ELISA of MMP-9 release by cytokine-stimulated keratinocytes; type: cell-based, humains; settings: for Libération de MMP-9 (pg/ml) ± sem: stimulated keratinocytes, 48 h, supernatant; for effet sur la libération de MMP-9 (in words): concentrations as in Tableau 5 (JAK 10 µM; TA, TB 500 ng/ml; Célastrol 100 ng/ml; extrait 1 200 ng/ml; extrait 2 150 ng/ml)
IL-23A = assay: RT-qPCR gene expression in cytokine-stimulated keratinocytes; type: cell-based, humains; settings: 24 h
S100A7 = assay: as above; type: cell-based, humains; settings: 24 h
[3] = ORAC (Oxygen Radical Antioxydant Capacity) antioxidant test in tubo; settings: for Indice ORAC / 100g triterpènes (x 1000): Trolox standard, AAPH, fluorescéine
Description: Le stress oxydatif fait partie des causes possibles de l'apparition du vitiligo. Cette expérience a pour objectif de mesurer l'activité antioxydante de chaque triterpène pentacyclique et des deux extraits, en comparaison avec un témoin positif bien connu, la vitamine C. La méthode in tubo utilisée est celle d'évaluation ORAC (Oxygen Radical Antioxydant Capacity) adaptée de celle décrite par Davalos et al. (J Agric Food Chem 52(1):48-54, 2004). L'indice ORAC permet d'évaluer la capacité anti-oxydante de chaque composé testé dans l'exemple 2. Ce test permet d'évaluer et de classer les différents composés testés suivant leur pouvoir anti-oxydant vis-à-vis des radicaux libres péroxyl. Le AAPH (2,2'-azobis-2-méthyl-propanimidamide, dihydrochloride) est à l'origine de radicaux libres péroxyl. Ce test est utilisé pour mimer la cinétique de dégradation de la fluorescéine par les radicaux libres. Ceci se traduit par une diminution de fluorescence en fonction du temps et de la concentration en actif anti-oxydant présent dans l'extrait testé. L'acide 3,4-dihydro-6-hydroxy-2,5,7,8-tétraméthyl-2H-1-benzopyran-2-carboxylique ou Trolox est utilisé comme standard, il s'agit d'un analogue hydrophile de la vitamine E (anti-oxydant connu). L'ajout de Trolox (gamme de référence) ou d'extrait ou triterpène pentacyclique, protège la fluorescéine de la dégradation. Ceci permet d'évaluer une activité antioxydante mesurée par rapport à une gamme de Trolox.
Toutes les solutions sont réalisées dans du tampon phosphate 75 mM, pH à 7,6. La fluorescéine est à 1,17 µM (solution mère […]). AAPH à 125 mM est préparé extemporanément, Trolox à 1 mM. Dans une plaque de 96 puits noir, il est déposé 20 µl d'antioxydant (gamme Trolox ou composé à tester), 160 µl de fluorescéine à 1,17 µM. la plaque est recouverte d'un film, puis est incubée pendant 15 minutes à 37°C. la solution de AAPH est ajoutée manuellement et le plus rapidement possible à raison de 20 µl par puits. La plaque est alors incubée immédiatement à 37°C dans un spectrofluorimètre (SpectraMax). Une lecture est enregistrée toutes les minutes pendant 90 minutes. La longueur d'onde d'excitation est de 485 nm et la longueur d'onde d'émission est de 520 nm. Chaque essai est réalisé en triplicata.
Les aires sous la courbe (AUC) pour chacun des essais sont calculées. Les AUC nets sont déterminées de la façon suivante : AUC net = AUC point de gamme ou échantillon−AUC blanc. [formula]
La droite d'étalonnage est établie, la concentration en Trolox (µM) en fonction de l'AUC net. L'équation de la droite est utilisée pour déterminer un équivalent en Trolox (µM) pour chacun des échantillons dosés.
Eq Trolox en µM = a x (AUC net)2 + b x (AUC net), a et b sont déterminés par l'équation de la droite.
Pour être dosés, les échantillons sont dilués, de sorte que les valeurs mesurées soient comprises dans la gamme étalon utilisée pour le dosage. L'acide ascorbique (vitamine C) est utilisé comme référence.
L'indice ORAC correspond à des […] de Trolox / 100g de matières.
Les résultats ci-dessous ont été calculés pour 100g d'extrait en Triterpènes, Tingénine A, Tingénine B et célastrol, soit le calcul : [formula]

CCL5 = assay: RT-qPCR gene expression in cytokine-stimulated keratinocytes; type: cell-based, humains; settings: 24 h
CXCL10 = assay: as above; type: cell-based, humains; settings: 24 h
CXCL11 = assay: as above; type: cell-based, humains; settings: 24 h
MMP-9 [4] = assay: as above; type: cell-based, humains; settings: 24 h
CCL20 = assay: as above; type: cell-based, humains; settings: 24 h
IL-8 [5] = assay: ELISA of IL-8 release by cytokine-stimulated keratinocytes; type: cell-based, humains; settings: for effet sur la libération d'IL-8 (in words): concentrations as in Tableau 5 (JAK 10 µM; TA, TB 500 ng/ml; Célastrol 100 ng/ml; extrait 1 200 ng/ml; extrait 2 150 ng/ml)
DEFB4A = assay: RT-qPCR gene expression in cytokine-stimulated keratinocytes; type: cell-based, humains; settings: 24 h
[6] = 15 ng/ml, stimulated keratinocytes
[7] = 45 ng/ml, stimulated keratinocytes
[8] = 135 ng/ml, stimulated keratinocytes
[9] = 10µM, stimulated keratinocytes (IL-17, Oncostatin M, TNFα 3ng/ml)
[10] = 405 ng/ml, stimulated keratinocytes

Compound | % Stimulation / Gènes témoins, CXCL16 (CXCL16; [7]) | % Stimulation / Gènes témoins, CXCL16 (CXCL16; [8]) | % Stimulation / Gènes témoins, IL-8 (IL-8 [1]; [7]) | % Stimulation / Gènes témoins, IL-8 (IL-8 [1]; [8]) | effet sur la libération de MMP-9 (in words) (MMP-9 [2]) | % Stimulation / Gènes témoins, IL-23A (IL-23A; [7]) | % Stimulation / Gènes témoins, IL-23A (IL-23A; [8]) | % Stimulation / Gènes témoins, S100A7 (S100A7; [7]) | % Stimulation / Gènes témoins, S100A7 (S100A7; [8]) | % Stimulation / Gènes témoins, CCL5 (CCL5; [7]) | % Stimulation / Gènes témoins, CCL5 (CCL5; [8]) | % Stimulation / Gènes témoins, CXCL10 (CXCL10; [7]) | % Stimulation / Gènes témoins, CXCL10 (CXCL10; [8]) | % Stimulation / Gènes témoins, CXCL11 (CXCL11; [7]) | % Stimulation / Gènes témoins, CXCL11 (CXCL11; [8]) | % Stimulation / Gènes témoins, MMP-9 (MMP-9 [4]; [7]) | % Stimulation / Gènes témoins, MMP-9 (MMP-9 [4]; [8]) | % Stimulation / Gènes témoins, CCL20 (CCL20; [7]) | % Stimulation / Gènes témoins, CCL20 (CCL20; [8]) | effet sur la libération d'IL-8 (in words) (IL-8 [5]) | further results
CC1=C(O)C(=O)C=C2C1=CC=C1[C@@]2(C)CC[C@@]2(C)[C@@H]3C[C@](C)(C(=O)O)CC[C@]3(C)CC[C@]12C [Célastrol] | 51% | 23% | 36% | 5% | effet inhibiteur | 41% | 15% | 53% | 16% | 12% | 3% | 20% | 10% | 5% | 1% | 88% | 9% | 35% | 11% | effet inhibiteur | % Stimulation / Gènes témoins, CXCL16 (CXCL16; [6]): 95%; % Stimulation / Gènes témoins, IL-8 (IL-8 [1]; [6]): 100%; Libération de MMP-9 (pg/ml) ± sem (MMP-9 [2]; 100 ng/ml): 395 ± 15 pg/mL; % Stimulation / Gènes témoins, IL-23A (IL-23A; [6]): 63%; % Stimulation / Gènes témoins, S100A7 (S100A7; [6]): 78%; Indice ORAC / 100g triterpènes (x 1000) ([3]; 30 µg/ml): 126 466 / 100g triterpènes (x 1000); % Stimulation / Gènes témoins, CCL5 (CCL5; [6]): 79%; % Stimulation / Gènes témoins, CXCL10 (CXCL10; [6]): 72%; % Stimulation / Gènes témoins, CXCL11 (CXCL11; [6]): 59%; % Stimulation / Gènes témoins, MMP-9 (MMP-9 [4]; [6]): 139%; % Stimulation / Gènes témoins, CCL20 (CCL20; [6]): 86%; Libération d'IL-8 (pg/ml) ± sem (IL-8 [5]; 100 ng/ml, stimulated keratinocytes, 48 h, supernatant): 83 ± 7 pg/mL; % Stimulation / Gènes témoins, DEFB4A (DEFB4A; [6]): 90%; % Stimulation / Gènes témoins, DEFB4A (DEFB4A; [7]): 32%; % Stimulation / Gènes témoins, DEFB4A (DEFB4A; [8]): 3%
CC(C)(C)c1nc2c3cc[nH]c(=O)c3c3cc(F)ccc3c2[nH]1 [Inhibiteur JAK, reference compound] | – | – | – | – | inhibe fortement et statistiquement | – | – | – | – | – | – | – | – | – | – | – | – | – | – | inhibe fortement et statistiquement | % Stimulation / Gènes témoins, CXCL16 (CXCL16; [9]): 76%; % Stimulation / Gènes témoins, IL-8 (IL-8 [1]; [9]): 18%; Libération de MMP-9 (pg/ml) ± sem (MMP-9 [2]; 10 µM): 389 ± 18 pg/mL; % Stimulation / Gènes témoins, IL-23A (IL-23A; [9]): 67%; % Stimulation / Gènes témoins, S100A7 (S100A7; [9]): 25%; % Stimulation / Gènes témoins, CCL5 (CCL5; [9]): 16%; % Stimulation / Gènes témoins, CXCL10 (CXCL10; [9]): 38%; % Stimulation / Gènes témoins, CXCL11 (CXCL11; [9]): 14%; % Stimulation / Gènes témoins, MMP-9 (MMP-9 [4]; [9]): 40%; % Stimulation / Gènes témoins, CCL20 (CCL20; [9]): 292%; % Stimulation / Gènes témoins, DEFB4A (DEFB4A; [9]): 7%
CC1=C(O)C(=O)C=C2C1=CC=C1[C@@]2(C)CC[C@@]2(C)C3C[C@@H](C)C(=O)C[C@]3(C)CC[C@]12C (stereo partly shown) [Tingénine A] | 116% | 93% | 113% | 125% | effet inhibiteur | 123% | 102% | 91% | 91% | 92% | 64% | 108% | 80% | 107% | 85% | 98% | 93% | 112% | 124% | effet inhibiteur | % Stimulation / Gènes témoins, CXCL16 (CXCL16; [10]): 50%; % Stimulation / Gènes témoins, IL-8 (IL-8 [1]; [10]): 53%; Libération de MMP-9 (pg/ml) ± sem (MMP-9 [2]; 500 ng/ml): 787 ± 105 pg/mL; % Stimulation / Gènes témoins, IL-23A (IL-23A; [10]): 55%; % Stimulation / Gènes témoins, S100A7 (S100A7; [10]): 70%; Indice ORAC / 100g triterpènes (x 1000) ([3]; 0,75 µg/ml): 33 960 / 100g triterpènes (x 1000); pouvoir anti-oxydant compared with vitamine C (in words) ([3]; comparison of ORAC indices of Tableau 6): inférieur; % Stimulation / Gènes témoins, CCL5 (CCL5; [10]): 19%; % Stimulation / Gènes témoins, CXCL10 (CXCL10; [10]): 31%; % Stimulation / Gènes témoins, CXCL11 (CXCL11; [10]): 23%; % Stimulation / Gènes témoins, MMP-9 (MMP-9 [4]; [10]): 34%; % Stimulation / Gènes témoins, CCL20 (CCL20; [10]): 80%; % Stimulation / Gènes témoins, DEFB4A (DEFB4A; [7]): 81%; % Stimulation / Gènes témoins, DEFB4A (DEFB4A; [8]): 63%; % Stimulation / Gènes témoins, DEFB4A (DEFB4A; [10]): 22%
O=C1O[C@H]([C@@H](O)CO)C(O)=C1O [Vitamine C, acide ascorbique, reference compound] | – | – | – | – | – | – | – | – | – | – | – | – | – | – | – | – | – | – | – | – | Indice ORAC / 100g triterpènes (x 1000) ([3]; 3 µg/ml): 69 813 / 100g triterpènes (x 1000)
Tingénine B | 83% | 77% | 96% | 70% | effet inhibiteur | 80% | 72% | 76% | 63% | 68% | 55% | 93% | 83% | 78% | 57% | 88% | 63% | 105% | 85% | effet inhibiteur | % Stimulation / Gènes témoins, CXCL16 (CXCL16; [10]): 54%; % Stimulation / Gènes témoins, IL-8 (IL-8 [1]; [10]): 44%; Libération de MMP-9 (pg/ml) ± sem (MMP-9 [2]; 500 ng/ml): 828 ± 31 pg/mL; % Stimulation / Gènes témoins, IL-23A (IL-23A; [10]): 34%; % Stimulation / Gènes témoins, S100A7 (S100A7; [10]): 57%; Indice ORAC / 100g triterpènes (x 1000) ([3]; 7,5 µg/ml): 124 320 / 100g triterpènes (x 1000); % Stimulation / Gènes témoins, CCL5 (CCL5; [10]): 19%; % Stimulation / Gènes témoins, CXCL10 (CXCL10; [10]): 30%; % Stimulation / Gènes témoins, CXCL11 (CXCL11; [10]): 27%; % Stimulation / Gènes témoins, MMP-9 (MMP-9 [4]; [10]): 32%; % Stimulation / Gènes témoins, CCL20 (CCL20; [10]): 82%; % Stimulation / Gènes témoins, DEFB4A (DEFB4A; [7]): 67%; % Stimulation / Gènes témoins, DEFB4A (DEFB4A; [8]): 48%; % Stimulation / Gènes témoins, DEFB4A (DEFB4A; [10]): 16%

— patent publication EP3965790B1, “PENTACYCLIC TRITERPENES IN THE TREATMENT OF VITILIGO” (Pierre Fabre Dermo-Cosmétique, priority 2019, dated 2020)
